Earlier results as cited in US10316056B2, “Chemical compounds and use thereof for improving muscular quality” (BIOPHYTIS, priority 2014, dated 2019).

Tests used:
[1] = system: muscle cells derived from the C2C12 murine line; settings: literature, Kazi et al., 2010; cited from earlier work
[2] = system: phosphorylations that activate proteins such as Akt or S6 kinase; settings: could reach; literature, Kazi et al., 2010; cited from earlier work

Substance: IGF-1: reference product (100 ng/ml) that stimulates protein synthesis
- increase in protein synthesis [1]: 20%
- stimulation of targets of the signaling pathway [2]: about 200%
